ChEMBL document CHEMBL3098031, “From NMDA receptor antagonists to discovery of selective σ₂ receptor ligands” (Bioorg Med Chem, 2014)
Activity calls are given as the source filed them. The rule behind the calls is not given here.

Experiments:
Cavia porcellus = species on record: Cavia porcellus; experiment: Selectivity ratio of Ki for guinea pig brain sigma1 receptor to Ki for guinea pig brain sigma2 receptor
[1] = Displacement of [3H]DTG from guinea pig brain sigma2 receptor after 120 mins by scintillation counting analysis in presence of SKF10,047; parameters: species or system Cavia porcellus
[2] = target: Sigma non-opioid intracellular receptor 1 (Cavia porcellus, UniProt Q60492); experiment: Displacement of [3H]-(+)-pentazocine from guinea pig brain sigma1 receptor after 150 mins by scintillation counting analysis
[3] = target: Glutamate receptor ionotropic, NMDA 2B (Rattus norvegicus) (UniProt Q00960); experiment: Displacement of [3H]ifenprodil from Wistar rat cerebral cortex glutamate NMDA receptor GluN2B subunit at 10 uM after 120 mins by scintillation counting analysis; type: tissue-based
[4] = target: Glutamate receptor ionotropic, NMDA 2B (Rattus norvegicus, UniProt Q00960); experiment: Displacement of [3H]ifenprodil from Wistar rat cerebral cortex glutamate NMDA receptor GluN2B subunit after 120 mins by scintillation counting analysis; type: tissue-based
Chain of Glutamate receptor ionotropic, NMDA 2B (Q00960 whole entry): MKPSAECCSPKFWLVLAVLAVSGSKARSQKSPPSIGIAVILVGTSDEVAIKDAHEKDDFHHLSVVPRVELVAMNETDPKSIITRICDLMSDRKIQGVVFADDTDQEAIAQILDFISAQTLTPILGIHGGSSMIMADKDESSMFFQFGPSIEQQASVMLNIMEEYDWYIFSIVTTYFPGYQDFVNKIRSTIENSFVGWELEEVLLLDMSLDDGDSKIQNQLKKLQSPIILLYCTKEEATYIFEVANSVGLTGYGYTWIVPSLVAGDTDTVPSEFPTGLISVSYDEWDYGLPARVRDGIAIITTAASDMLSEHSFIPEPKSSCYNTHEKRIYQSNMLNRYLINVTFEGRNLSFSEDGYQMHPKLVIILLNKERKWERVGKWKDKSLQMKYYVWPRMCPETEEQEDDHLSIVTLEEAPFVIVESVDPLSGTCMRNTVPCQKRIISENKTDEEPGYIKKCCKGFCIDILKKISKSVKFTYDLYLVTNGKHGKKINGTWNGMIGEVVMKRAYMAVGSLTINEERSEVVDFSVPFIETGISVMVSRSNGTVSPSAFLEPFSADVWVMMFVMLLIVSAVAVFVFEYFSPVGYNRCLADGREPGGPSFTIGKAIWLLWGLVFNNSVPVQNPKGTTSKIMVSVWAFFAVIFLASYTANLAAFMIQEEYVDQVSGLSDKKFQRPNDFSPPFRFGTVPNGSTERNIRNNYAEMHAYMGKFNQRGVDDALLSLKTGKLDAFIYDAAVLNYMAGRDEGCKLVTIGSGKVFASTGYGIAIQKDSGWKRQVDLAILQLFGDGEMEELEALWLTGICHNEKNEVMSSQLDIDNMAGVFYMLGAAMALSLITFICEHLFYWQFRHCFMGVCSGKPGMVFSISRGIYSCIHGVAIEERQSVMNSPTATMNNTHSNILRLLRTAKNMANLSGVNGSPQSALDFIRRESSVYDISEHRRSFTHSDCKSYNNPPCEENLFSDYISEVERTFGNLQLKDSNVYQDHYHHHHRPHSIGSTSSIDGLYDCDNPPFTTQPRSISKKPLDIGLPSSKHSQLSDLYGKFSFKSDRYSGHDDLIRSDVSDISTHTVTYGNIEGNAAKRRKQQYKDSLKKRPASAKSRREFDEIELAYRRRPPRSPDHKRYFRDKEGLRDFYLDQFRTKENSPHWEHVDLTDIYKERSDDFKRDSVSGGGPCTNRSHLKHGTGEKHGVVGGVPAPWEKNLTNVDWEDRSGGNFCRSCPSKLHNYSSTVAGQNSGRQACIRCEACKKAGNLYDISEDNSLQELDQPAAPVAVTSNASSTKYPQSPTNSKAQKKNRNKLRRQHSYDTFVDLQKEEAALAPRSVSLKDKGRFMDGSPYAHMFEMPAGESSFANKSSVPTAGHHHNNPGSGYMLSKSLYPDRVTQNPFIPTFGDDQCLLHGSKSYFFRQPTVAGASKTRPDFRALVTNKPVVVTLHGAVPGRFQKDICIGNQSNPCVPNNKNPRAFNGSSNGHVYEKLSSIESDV

Chain of Sigma non-opioid intracellular receptor 1 (Q60492 whole entry): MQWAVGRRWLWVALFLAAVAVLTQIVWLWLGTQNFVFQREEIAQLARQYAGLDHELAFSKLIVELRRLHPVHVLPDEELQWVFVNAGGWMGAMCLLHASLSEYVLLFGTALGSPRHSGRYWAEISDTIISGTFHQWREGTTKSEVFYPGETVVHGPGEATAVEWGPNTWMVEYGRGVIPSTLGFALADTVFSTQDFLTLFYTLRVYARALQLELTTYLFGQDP
Chain of Glutamate receptor ionotropic, NMDA 2B (Rattus norvegicus) (Q00960 27-1482 limits assumed): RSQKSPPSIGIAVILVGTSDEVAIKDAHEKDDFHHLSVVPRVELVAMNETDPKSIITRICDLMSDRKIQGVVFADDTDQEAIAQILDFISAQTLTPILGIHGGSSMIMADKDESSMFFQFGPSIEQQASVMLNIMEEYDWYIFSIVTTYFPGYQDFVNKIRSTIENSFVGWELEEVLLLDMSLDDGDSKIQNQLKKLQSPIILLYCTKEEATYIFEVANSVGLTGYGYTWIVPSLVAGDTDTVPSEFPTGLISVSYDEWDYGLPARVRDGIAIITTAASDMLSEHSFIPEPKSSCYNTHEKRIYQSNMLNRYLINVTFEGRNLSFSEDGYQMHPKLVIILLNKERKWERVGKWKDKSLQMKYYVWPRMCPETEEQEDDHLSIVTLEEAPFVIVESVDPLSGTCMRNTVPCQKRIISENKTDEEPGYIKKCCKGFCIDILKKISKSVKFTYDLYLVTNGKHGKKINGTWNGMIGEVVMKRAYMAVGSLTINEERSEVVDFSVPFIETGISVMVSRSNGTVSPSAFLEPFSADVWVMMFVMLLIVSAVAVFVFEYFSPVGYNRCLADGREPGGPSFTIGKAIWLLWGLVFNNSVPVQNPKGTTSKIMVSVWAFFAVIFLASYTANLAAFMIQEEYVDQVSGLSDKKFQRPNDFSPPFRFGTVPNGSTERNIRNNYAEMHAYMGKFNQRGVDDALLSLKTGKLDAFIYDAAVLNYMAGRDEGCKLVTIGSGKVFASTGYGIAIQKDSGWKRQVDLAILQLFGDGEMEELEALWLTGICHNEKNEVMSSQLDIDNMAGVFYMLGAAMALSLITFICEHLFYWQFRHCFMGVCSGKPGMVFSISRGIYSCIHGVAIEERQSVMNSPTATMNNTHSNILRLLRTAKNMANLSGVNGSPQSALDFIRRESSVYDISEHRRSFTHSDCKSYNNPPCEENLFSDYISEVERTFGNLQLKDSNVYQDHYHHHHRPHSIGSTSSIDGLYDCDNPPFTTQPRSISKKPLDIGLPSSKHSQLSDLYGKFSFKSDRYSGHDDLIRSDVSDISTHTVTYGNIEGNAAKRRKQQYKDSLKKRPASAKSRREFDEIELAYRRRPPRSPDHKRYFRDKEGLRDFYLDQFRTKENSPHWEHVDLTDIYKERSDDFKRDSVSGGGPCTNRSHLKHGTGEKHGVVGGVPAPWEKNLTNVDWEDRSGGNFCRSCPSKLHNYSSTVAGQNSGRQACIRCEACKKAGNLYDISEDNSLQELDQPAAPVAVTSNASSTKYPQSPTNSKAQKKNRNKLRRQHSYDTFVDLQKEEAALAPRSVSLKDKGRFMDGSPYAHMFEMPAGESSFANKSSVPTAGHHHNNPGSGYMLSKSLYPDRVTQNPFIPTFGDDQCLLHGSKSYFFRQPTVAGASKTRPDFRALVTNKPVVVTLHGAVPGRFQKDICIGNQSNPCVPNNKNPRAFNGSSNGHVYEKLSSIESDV

SMILES	Ratio Ki (Cavia porcellus)	Ki [1] [nM]	Ki [2] [nM]	inhibition [3]	Ki [4] [nM]
COc1ccc2[nH]cc(C(=O)CN3CCC(c4ccccc4)CC3)c2c1	95.5	20	1910	8%	
COc1ccc2[nH]cc(C(=O)CN3CCC(Cc4ccccc4)CC3)c2c1	> 500	10	> 5000	86%	1670
CC(=O)C1(c2ccccc2)CCN(CC(=O)c2c[nH]c3ccc(O)cc23)CC1				6%	
O=C(CN1CCC(O)(c2ccccc2)CC1)c1c[nH]c2ccc(O)cc12	4.7	658	3080	32%	
O=C(CN1CCC(c2ccccc2)CC1)c1c[nH]c2ccc(O)cc12	12	224	2680	51%	
COc1ccc2[nH]cc(C(=O)CN3CCC(C#N)(c4ccccc4)CC3)c2c1				11%	
O=C(CN1CCC(Cc2ccccc2)CC1)c1c[nH]c2ccc(O)cc12	61.9	76.5	4730	92%	
COc1ccc2[nH]cc(C(=O)CN3CCC(O)(c4ccc(Br)cc4)CC3)c2c1	6	10	60	5%	
N#CC1(c2ccccc2)CCN(CC(=O)c2c[nH]c3ccc(O)cc23)CC1				16%	
COc1ccc2[nH]cc(C(=O)CN3CCC(C(C)=O)(c4ccccc4)CC3)c2c1				inactive	
O=C(CN1CCC(O)(c2ccc(Br)cc2)CC1)c1c[nH]c2ccc(O)cc12	3.2	57	185	40%	
O=C(CN1CCC(O)(c2ccc(Cl)cc2)CC1)c1c[nH]c2ccc(O)cc12	11.9	47	557	26%	
COc1ccc2[nH]cc(C(=O)CN3CCC(O)(c4ccc(Cl)cc4)CC3)c2c1	10.5	7.5	78.5	15%	
COc1ccc2[nH]cc(C(=O)CN3CCC(O)(c4ccccc4)CC3)c2c1	5	21	103	11%	
